How the values were obtained:
Assay in all cases: relative viability (nuclei count vs DMSO), 5 days (fraction); higher = more cells survive
Shikonin + Trametinib = compound: CC(C)=CC[C@@H](O)C1=CC(=O)c2c(O)ccc(O)c2C1=O [Shikonin] + CC(=O)Nc1cccc(-n2c(=O)n(C3CC3)c(=O)c3c(Nc4ccc(I)cc4F)n(C)c(=O)c(C)c32)c1 [Trametinib] (partner 0.02 µM)
Method in brief: (§1)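 Nuclei were stained with Hoechst during a one-step fixation (final 0.05% Triton X-100, 1% formaldehyde, 1 ug/ml Hoechst) carried out 5 days after dosing, then counted on 4× images. The cells, lung cancer lines in 1536-well plates, had been dosed by pin tool the day after seeding with one drug alone or a fixed anchor-drug dose plus five library-drug doses (not always all listed) in √10 steps. Relative viability is the nuclei count in treated wells divided by that in vehicle wells, and each value is the median of duplicate plates.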

Shikonin + Pictilisib = compound: CC(C)=CC[C@@H](O)C1=CC(=O)c2c(O)ccc(O)c2C1=O [Shikonin] + CS(=O)(=O)N1CCN(Cc2cc3nc(-c4cccc5[nH]ncc45)nc(N4CCOCC4)c3s2)CC1 [Pictilisib] (partner 1 µM)
Method in brief: as §1

Shikonin + AZD7762 = compound: CC(C)=CC[C@@H](O)C1=CC(=O)c2c(O)ccc(O)c2C1=O [Shikonin] + NC(=O)Nc1cc(-c2cccc(F)c2)sc1C(=O)N[C@H]1CCCNC1 [AZD7762] (partner 0.2 µM)
Method in brief: as §1

[1] = compound: CC(C)N(CCCNC(=O)Nc1ccc(C(C)(C)C)cc1)C[C@H]1O[C@@H](n2ccc3c(N)ncnc32)[C@H](O)[C@@H]1O + N=C(N)NC(=N)NCCc1ccccc1 [Phenformin] (partner 250 µM)
Method in brief: as §1

Cell Line	relative viability (Shikonin + Trametinib; first compound 0.01 µM)	relative viability (Shikonin + Trametinib; first compound 0.1 µM)	relative viability (Shikonin + Trametinib; first compound 0.3162 µM)	relative viability (Shikonin + Trametinib; first compound 1 µM)	relative viability (Shikonin + Pictilisib; first compound 0.01 µM)	relative viability (Shikonin + Pictilisib; first compound 0.1 µM)	relative viability (Shikonin + Pictilisib; first compound 0.3162 µM)	relative viability (Shikonin + Pictilisib; first compound 1 µM)	relative viability (Shikonin + AZD7762; first compound 0.01 µM)	relative viability (Shikonin + AZD7762; first compound 0.1 µM)	relative viability (Shikonin + AZD7762; first compound 0.3162 µM)	relative viability (Shikonin + AZD7762; first compound 1 µM)	relative viability ([1]; first compound 0.08 µM)	relative viability ([1]; first compound 0.253 µM)	relative viability ([1]; first compound 0.8 µM)	relative viability ([1]; first compound 2.53 µM)	relative viability ([1]; first compound 8 µM)
NCI-H2085	0.601	0.502	0.574	0.513	0.41	0.47	0.424	0.411	1.02	1.06	0.957	1.05	0.693	0.592	0.816	0.789	0.631
LXF-289	0.668	0.756	0.712	0.701	0.868	0.784	0.799	0.775	1.13	1.15	1.14	1.18	0.518	0.556	0.541	0.539	0.478
RERF-LC-KJ	0.97	0.728	0.991	0.743	0.549	0.512	0.557	0.248	1.04	0.788	1.26	1.02	0.384	0.378	0.422	0.386	0.395
NCI-H727	0.351	0.375	0.389	0.409	0.326	0.353	0.311	0.431	0.682	0.584	0.732	0.647	0.554	0.461	0.46	0.639	0.412
NCI-H1666	0.896	0.855	1.02	0.772	0.643	0.358	0.394	0.299	0.776	0.9	1	0.887	0.546	0.594	0.543	0.586	0.542
NCI-H2087	0.198	0.194	0.189	0.18	0.767	1.05	0.843	0.861	1.38	1.12	1.35	1.23	0.38	0.519	0.445	0.55	0.351
NCI-H1734	0.664	0.771	0.747	0.732	0.495	0.551	0.441	0.494	0.557	0.552	0.595	0.55	0.38	0.331	0.398	0.4	0.397
EMC-BAC-2	0.863	0.947	1	0.851	0.541	0.536	0.593	0.654	1.15	1.32	1.21	1.16	0.564	0.581	0.565	0.543	0.449
NCI-H647	0.414	0.356	0.443	0.451	0.458	0.552	0.441	0.573	0.646	0.406	0.429	0.529	0.469	0.559	–	0.478	0.568
NCI-H1792	0.476	0.327	0.424	0.553	0.306	0.206	0.293	0.308	0.663	0.618	0.604	0.694	0.374	–	0.223	0.418	0.472
ChaGo-K-1	0.883	0.98	0.903	0.972	0.677	1.16	0.699	1.27	0.942	0.906	0.913	0.876	0.494	0.47	0.427	0.458	0.46
LOU-NH91	0.815	0.839	0.838	0.791	0.509	0.544	0.52	0.563	0.839	0.864	0.816	0.84	0.685	0.712	0.441	0.65	0.671
NCI-H3122	0.183	0.292	0.211	0.266	0.638	0.643	0.607	0.494	0.973	1.07	1.05	0.959	0.39	0.384	0.367	0.366	0.358
LCLC-97TM1	0.179	0.237	0.2	0.202	0.172	0.143	0.266	0.169	0.286	0.188	0.227	0.362	0.424	0.487	0.548	0.373	0.43
NCI-H650	0.988	1.19	0.996	0.982	0.946	–	0.965	0.845	0.962	1.07	1.17	0.947	0.433	0.456	0.514	0.417	0.411
PC-14	0.936	0.9	0.893	0.769	0.817	–	0.641	0.68	0.381	0.274	0.438	0.576	0.637	0.544	0.556	0.454	0.532
H3255	0.658	0.544	0.613	0.548	0.487	0.477	0.495	0.427	0.909	0.977	0.943	0.911	0.375	0.365	0.371	0.416	0.372

Cell Line	relative viability (Shikonin + Trametinib; first compound 0.01 µM)	relative viability (Shikonin + Trametinib; first compound 0.1 µM)	relative viability (Shikonin + Trametinib; first compound 0.3162 µM)	relative viability (Shikonin + Trametinib; first compound 1 µM)	relative viability (Shikonin + Pictilisib; first compound 0.01 µM)	relative viability (Shikonin + Pictilisib; first compound 0.1 µM)	relative viability (Shikonin + Pictilisib; first compound 0.3162 µM)	relative viability (Shikonin + Pictilisib; first compound 1 µM)	relative viability (Shikonin + AZD7762; first compound 0.01 µM)	relative viability (Shikonin + AZD7762; first compound 0.1 µM)	relative viability (Shikonin + AZD7762; first compound 0.3162 µM)	relative viability (Shikonin + AZD7762; first compound 1 µM)	relative viability ([1]; first compound 0.08 µM)	relative viability ([1]; first compound 0.253 µM)	relative viability ([1]; first compound 0.8 µM)	relative viability ([1]; first compound 2.53 µM)	relative viability ([1]; first compound 8 µM)
NCI-H1437	0.539	0.433	0.458	0.504	0.424	0.421	0.416	0.477	1.12	1.1	1.15	1.11	0.278	0.344	0.276	0.294	0.309
LU99A	0.537	0.563	0.567	0.478	0.309	0.3	0.337	0.303	0.381	0.334	0.687	0.323	0.793	0.679	0.979	0.85	0.787
HCC-827	0.561	0.496	0.563	0.517	1.12	0.786	1.03	0.871	0.203	0.216	0.2	0.197	0.393	0.383	–	0.417	0.417
LK-2	0.884	0.935	0.799	0.732	0.531	0.546	0.619	0.476	0.368	0.428	0.424	0.231	0.433	0.326	0.433	0.562	0.411
HCC-366	0.359	0.363	0.336	0.451	0.164	0.137	0.165	0.127	0.281	0.25	0.308	0.269	0.625	0.627	0.754	0.588	0.53
BEN	1.13	1.06	1.03	1.19	0.642	0.596	0.682	0.612	0.744	0.807	0.718	0.694	0.254	0.258	0.265	0.246	0.287
NCI-H2347	0.272	0.273	0.279	0.249	0.701	0.764	0.582	0.573	0.77	0.947	0.829	0.712	0.536	0.404	0.369	0.488	0.254
NCI-H1395	0.994	1.18	1.09	0.923	0.603	0.695	0.584	0.652	0.375	0.409	0.366	0.448	0.433	0.436	0.43	0.438	0.424
201T	0.724	0.777	0.75	0.707	0.621	0.754	0.669	0.796	0.638	0.657	0.625	0.603	0.474	0.421	0.43	0.421	0.401
NCI-H2170	0.937	0.97	0.959	0.981	0.291	0.34	0.338	0.326	0.912	0.737	0.975	0.905	0.445	0.441	0.416	0.445	0.396
NCI-H596	0.94	0.827	0.841	0.839	0.341	0.385	0.422	0.4	1.06	1.14	1.09	1.09	0.819	–	0.626	0.781	0.713
NCI-H838	0.619	0.505	0.551	0.564	0.529	0.601	0.443	0.452	0.97	1.03	0.97	1.1	0.487	0.394	0.551	0.551	0.51
HCC-15	0.389	0.35	0.414	0.418	0.699	0.789	0.732	0.832	1.33	1.18	1.34	1.24	0.466	0.483	0.431	0.423	0.407
LCLC-103H	0.662	0.683	0.663	0.698	0.503	0.708	0.677	0.676	0.796	0.889	0.815	0.954	0.326	0.342	0.304	0.261	0.304
NCI-H460	0.159	0.164	0.131	0.135	0.357	0.441	0.357	0.375	0.739	0.874	0.597	0.658	0.493	0.555	0.54	0.485	0.436
EPLC-272H	0.286	0.335	0.265	0.244	0.299	0.383	0.292	0.36	0.194	0.265	0.241	0.176	0.286	0.271	0.32	0.296	0.298
